Results reported in PubChem BioAssay (NCI).
Values joined by “and” are separate entries in the source; they are usually repeats but may differ in a detail not shown here. Equal entries are not always repeated.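 Dose response: 5 concentrations. Exposure: 48 h. Format: 96-well plates. Endpoint: linear interpolation; highest concentration if not reached. GI50: concentration for 50% inhibition of growth. TGI: total growth inhibition.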

Columns and labels:
Assay in all cases: DTP human tumour cell line panel, 48 h
NCI-H460 lung = test system: NCI-H460 lung
HCT-15 colon = test system: HCT-15 colon
NCI/ADR-RES ovarian = test system: NCI/ADR-RES ovarian
OVCAR-8 ovarian = test system: OVCAR-8 ovarian
RPMI-8226 leukemia = test system: RPMI-8226 leukemia
SK-MEL-2 melanoma = test system: SK-MEL-2 melanoma
SN12C renal = test system: SN12C renal
LOX IMVI melanoma = test system: LOX IMVI melanoma
IGROV1 ovarian = test system: IGROV1 ovarian
A498 renal = test system: A498 renal

SMILES	GI50 (NCI-H460 lung)	TGI (NCI-H460 lung)	GI50 (HCT-15 colon)	TGI (HCT-15 colon) [µM]	GI50 (NCI/ADR-RES ovarian)	TGI (NCI/ADR-RES ovarian) [µM]	GI50 (OVCAR-8 ovarian)	TGI (OVCAR-8 ovarian) [µM]	GI50 (RPMI-8226 leukemia)	TGI (RPMI-8226 leukemia)	GI50 (SK-MEL-2 melanoma)	TGI (SK-MEL-2 melanoma)	GI50 (SN12C renal)	TGI (SN12C renal) [µM]	GI50 (LOX IMVI melanoma)	TGI (LOX IMVI melanoma)	GI50 (IGROV1 ovarian)	TGI (IGROV1 ovarian) [µM]	GI50 (A498 renal)	TGI (A498 renal) [µM]
Fc1cc2[nH]ncc2c2c3c(c(-c4cn[nH]c4C(F)(F)F)nc12)CCCC3	1.16 µM	9.92 µM	2.79 µM	15.2	4.95 µM	43.4	2.04 µM	> 100	1.56 µM	> 100 µM	2.07 µM	5.67 µM	1.7 µM	8.63	1.1 µM	3.05 µM	0.802 µM	5.88	1.56 µM	3.09
CC(C)c1[nH]nc(C(N)=O)c1N=NN(C)C		> 100 µM		> 100		> 100		> 100		> 100 µM		> 100 µM		> 100		> 100 µM		> 100		> 100
O=c1[nH]c2ccccc2c2ccccc12	70.1 µM	> 100 µM	> 100 µM	> 100	> 100 µM	> 100	> 100 µM	> 100	> 100 µM	> 100 µM	> 100 µM	> 100 µM	> 100 µM	> 100	> 100 µM	> 100 µM	> 100 µM	> 100	44.7 µM	> 100
COC[C@@H](N=C1NC(=O)/C(=C/c2ccc3ncccc3c2)S1)c1ccccc1	8 µM	> 25 µM	7.01 µM	> 25	11.6 µM	> 25	10.2 µM	> 25	6.13 µM	20.7 µM	8.19 µM	17.2 µM	8.52 µM	> 25	9.73 µM	> 25 µM	12.9 µM	> 25	4.25 µM	12.5
O=C(Nc1ccc2[nH]nc(-c3ccncc3)c2c1)[C@@H]1CCN(CC(=O)N2CCN(c3ccc(-c4ncccn4)cc3)CC2)C1	> 100 µM	> 100 µM	7.79 µM	> 100	> 100 µM	> 100	3.65 µM	> 100	4.29 µM	> 66.7 µM	0.0269 µM	0.223 µM	> 100 µM	> 100	0.0539 µM	> 100 µM	0.964 µM	> 100	0.0778 µM	0.533
CC(N)C(Cc1ccc(Cl)cc1)c1ccc(Cl)cc1 (stereo not given)	5.55 µM	18.5 µM	4.15 µM	17.5	13.4 µM	36.9	20.4 µM	52.8	6.48 µM	22.2 µM	13 µM	27 µM	11.4 µM	26.7	5.56 µM	18.9 µM	4.89 µM	18.7	15.1 µM	30.7
CC(=O)Nc1ccc2c(c1)C(c1ccccc1Cl)=Nc1c(n[nH]c1C)N2	1.85 µM	> 25 µM	10.8 µM	> 25	> 25 µM	> 25	13.4 µM	> 25	> 25 µM	> 25 µM	> 25 µM	> 25 µM	5.05 µM	> 25	2.75 µM	> 25 µM	5.66 µM	> 24	0.746 µM	6.99
Nc1nccc(-c2c(-c3ccc(F)cc3)ncn2C2CCNCC2)n1	1.55 µM and 1.36 µM	> 25 µM	> 25 µM and 6.43 µM	> 25	> 25 µM and 5.1 µM	> 25	5.88 µM and 1.43 µM	> 25	12.6 µM and 7.07 µM	> 25 µM	13.6 µM and 3.64 µM	> 25 µM and 13 µM	7.71 µM and 2.13 µM	> 25	2.84 µM and 2.33 µM	> 25 µM	5.13 µM and 4.73 µM	> 25	8.88 µM and 2.16 µM	> 25
OCCN1CCN(CCCN2c3ccccc3Sc3ccc(Cl)cc32)CC1	1.98 µM	4.22 µM	2.39 µM	6.13	2.72 µM	9.91	2.02 µM	4.7	2.29 µM	6.7 µM	2.03 µM	4.04 µM	3.42 µM	14.2	1.59 µM	3.09 µM	3.12 µM	12.2	1.56 µM	5.87
CCC(C)[C@H]1O[C@]2(CC[C@@H]1C)C[C@@H]1C[C@@H](C/C=C(\C)[C@@H](OC3C[C@H](OC)C(O[C@H]4C[C@H](OC)[C@@H](O)[C@H](C)O4)[C@H](C)O3)[C@@H](C)/C=C/C=C3\CO[C@@H]4[C@H](O)C(C)=C[C@@H](C(=O)O1)[C@]34O)O2 (stereo not given in full)	2.91 µM	10.6 µM	2.74 µM	10.2	3.43 µM	13.7	3.06 µM	12.5	2.95 µM	14.9 µM	2.04 µM	4.79 µM	3.08 µM	11.4	2.3 µM	5.79 µM	2.95 µM	13.5	1.79 µM	7.72
CN(c1ncccc1CNc1nc(Nc2ccc3c(c2)CC(=O)N3)ncc1C(F)(F)F)S(C)(=O)=O	2.14 µM and 2.95 µM	7.32 µM and > 10 µM	5.14 µM and 4.9 µM	> 80.5	13 µM	> 85.8	2.41 µM and 3.38 µM	> 64.6	2.75 µM and 2.39 µM	10.2 µM and 6.94 µM	1.57 µM and 1.85 µM	3.69 µM and 4.8 µM	2.88 µM and 2.95 µM	> 100	1.31 µM and 1.68 µM	17.4 µM and 9.4 µM	2.42 µM and 1.8 µM	> 100	2.81 µM	7.14
O=C(CC(Cl)=C(Cl)Cl)Nc1ccccc1	> 100 µM	> 100 µM	> 100 µM	> 100	> 100 µM	> 100	> 100 µM	> 100	> 100 µM	> 100 µM	> 100 µM	> 100 µM	> 100 µM	> 100	> 100 µM	> 100 µM	> 100 µM	> 100	> 100 µM	> 100
COc1cc(Nc2nc3cc(N)cc(N)c3nc2-c2ccccc2)cc(OC)c1OC	17.1 µM	52.8 µM	15.3 µM	45.4	14.4 µM	44.1	15.3 µM	34.9	12.4 µM	32.4 µM	15.9 µM	35.2 µM	20.4 µM	83.7	18.5 µM	49 µM	15.7 µM	58.2	31.3 µM	> 100
O=Nc1ccc(O)c(=O)cc1	4.76 µM	23.5 µM	2.37 µM	9.62	2.6 µM	10.6	2.82 µM	11	1.05 µM	3.97 µM	2.61 µM	5.89 µM	2.95 µM	12.4	2.16 µM	7.67 µM	3.77 µM	11.3	4.89 µM	28.6
CCOC(=O)c1ccc(NC(=O)Nc2nncs2)cc1	0.379 µM	14.1 µM	0.0688 µM	> 100	0.229 µM	10.6	0.371 µM	13.5	0.499 µM	10.2 µM	0.734 µM	24 µM	0.662 µM	16.1	0.485 µM	7.67 µM	0.374 µM	14.8	0.23 µM	0.978
CCN1C(=S)N(c2ccccc2)C2NC(=S)N(/N=C/C=C/c3ccccc3OC)C21 (stereo not given)	0.37 µM	> 100 µM	0.344 µM	> 100	0.307 µM	> 100	0.487 µM	> 100	0.377 µM	> 24.8 µM	0.612 µM	> 100 µM	0.541 µM	> 100	0.482 µM	> 100 µM	0.606 µM	> 100	0.235 µM	0.833
COc1ccc(/C=C(/C#N)C(N)=O)c(OC)c1		> 100 µM		> 100		> 100		> 100		> 100 µM		> 100 µM		> 100		> 100 µM		> 100		25.7
NS(=O)(=O)c1ccc(Nc2cc(-c3cccc(O)c3)[nH]n2)cc1	> 25 µM	> 25 µM	> 25 µM	> 25	> 25 µM	> 25	> 22.6 µM	> 25	> 25 µM	> 25 µM	> 25 µM	> 25 µM	> 25 µM	> 25	> 25 µM	> 25 µM	> 25 µM	> 25	> 25 µM	> 25
O=S(=O)(NCCCNc1nccc(-c2c(-c3ccc(O)cc3)nc3sccn23)n1)c1ccc(F)cc1	2.37 µM	7.18 µM	2.61 µM	10	4.59 µM	> 100	1.57 µM	13.3	1.58 µM	4.72 µM	1.18 µM	2.81 µM	1.84 µM	> 100	0.567 µM	5.44 µM	2.85 µM	8.78	1.55 µM	5.16
CCN(Cc1ccc(C)cc1)c1ccc(CO)c(Cl)c1	0.306 µM	11.7 µM	6.41 µM	23.2	11.1 µM	25.3	10.6 µM	26.1	3.32 µM	30.6 µM	2.2 µM	16.2 µM	10.6 µM	25.8	7.05 µM	19.9 µM	0.108 µM	0.938	0.0398 µM	0.178
